A short description of the data set: photoluminescence quantum yield (fraction); solvent given as SMILES.

Consider `F[B-]1(F)n2cccc2C(c2c3ccccc3c(-c3ccccc3)c3ccccc23)=C2C=CC=[N+]21`, for which the photoluminescence quantum yield by setting is: (in CC#N) 0.001; (in CCO) 0.002; (in CN(C)C=O) 0.001; (in Cc1ccccc1) 0.007; (in ClCCl) 0.002.

For the setting “in Cc1ccccc1”, `CCCCC(CC)CN1C(=O)c2cc(Oc3ccc(OC)cc3)c3c4c(Cl)cc5c6c(cc(Cl)c(c7c(Oc8ccc(OC)cc8)cc(c2c37)C1=O)c64)C(=O)N(c1c(C(C)C)cccc1C(C)C)C5=O` (stereo not drawn) yielded a photoluminescence quantum yield of 0.13.

Turning to `CCC1=C(C)C(=O)n2c1cc1c(c(C)c(C(=O)OCC(C)C)n1CC(C)C)c2=O`, the photoluminescence quantum yield is 0.05 (in C1CCCCC1); 0.74 (in CO); 0.84 (in CS(C)=O); 0.78 (in ClC(Cl)Cl); 0.22 (in c1ccccc1).

`COc1ccc2c3c(cccc13)C(=O)c1ccccc1-2` returned a photoluminescence quantum yield (in CC#N) of 0.62; a photoluminescence quantum yield (in CC(C)=O) of 0.56; a photoluminescence quantum yield (in CC(C)O) of 0.54; a photoluminescence quantum yield (in CCCCOCCCC) of 0.01; a photoluminescence quantum yield (in CCOC(C)=O) of 0.23; a photoluminescence quantum yield (in CCOCC) of 0.05. Further, the photoluminescence quantum yield is, setting by setting: (in CO) 0.45; (in Cc1ccccc1) 0.1; (in Clc1ccccc1) 0.41; (in N#Cc1ccccc1) 0.69; (in O=C1CCCCC1) 0.57.

Consider `CCN(CC)c1ccc2ccc(=O)oc2c1`, for which the photoluminescence quantum yield is 0.55 (in CC(C)=O); 0.85 (in CCCCCC); 0.85 (in CCCCCCC); 0.47 (in CCCCO); 0.52 (in CCCO); 0.39 (in CCO). The compound further registered a photoluminescence quantum yield (in CCOCC) of 0.8; a photoluminescence quantum yield (in CN(C)C=O) of 0.56; a photoluminescence quantum yield (in CO) of 0.27; a photoluminescence quantum yield (in Cc1ccccc1) of 0.83; a photoluminescence quantum yield (in ClC(Cl)Cl) of 0.62; a photoluminescence quantum yield (in ClCCl) of 0.9. In addition, the photoluminescence quantum yield reads like this: (in OCCO) 0.25; (in c1ccccc1) 0.83.

`C[Si](C)(C)[Si](C)(C)c1c2ccccc2cc2ccccc12`: the photoluminescence quantum yield is, setting by setting: (in C1CCCCC1) 0.92; (in CC#N) 0.65.

In the case of `N#Cc1ccc(-c2cn3cc(-c4ccccc4)c[n+]3[n-]2)cc1`, the photoluminescence quantum yield (in ClCCl) was found to be 0.48.

Turning to `C(=C\c1ccc(/C=C/c2ccc(N(c3ccccc3)c3ccccc3)cc2)c2nsnc12)/c1ccc(N(c2ccccc2)c2ccccc2)cc1`, the photoluminescence quantum yield amounted to 0.228 (in C1CCOC1); 0.275 (in CCOC(C)=O); 0.061 (in CN(C)C=O); 0.345 (in Cc1ccccc1); 0.148 (in ClC(Cl)Cl); 0.137 (in ClCCl).

`CCOC(=O)c1cc(C(=O)OCC)c2c(C)ccc(OC(=O)OC(C)(C)C)c2n1` yielded a photoluminescence quantum yield (in CCO) of 0.22.

With `CN(C)c1ccc(/C=C2\OC(=O)c3cc(N)ccc32)cc1`, the photoluminescence quantum yield is, setting by setting: (in CC#N) 0.24; (in CC(C)=O) 0.26; (in CC(C)CO) 0.36; (in CC(C)O) 0.31; (in CCCO) 0.28; (in CCO) 0.22. In addition, the photoluminescence quantum yield is, setting by setting: (in CCOC(C)=O) 0.37; (in CCOCC) 0.4; (in CO) 0.22.

For the setting “in C1CCOC1”, `N#Cc1ccc(C2=CC3=c4cc(-c5ccc(C#N)cc5)c5nc(C(F)(F)C(F)(F)C(F)(F)F)nc6c(-c7ccc(C#N)cc7)cc(c4c65)C4=CC(c5ccc(C#N)cc5)=C5N=C(C(F)(F)C(F)(F)C(F)(F)F)N=C2C5C43)cc1` (stereo not drawn) had a photoluminescence quantum yield of 1.

For `CCCCCCCCC1(CCCCCCCC)c2cc(-c3ccc(C#N)cc3)ccc2-c2ccc(-c3ccc(C#N)cc3)cc21`, for the setting “in ClC(Cl)Cl”, the photoluminescence quantum yield was determined as 0.95.

For the compound `COc1ncccc1B(O)O`, the photoluminescence quantum yield runs as follows: (in C1COCCO1) 0.423; (in CC(C)O) 0.549; (in CCCCCC) 0.502; (in CCCCCCC) 0.689; (in CCCCCCCC) 0.701; (in CCCCCCCCO) 0.317. For the same compound, the photoluminescence quantum yield stood at 0.783 (in CCO) and 0.518 (in CO).

For the compound `Brc1ccc2cc3c4ccccc4nc(-c4ccco4)c3n2c1`, the photoluminescence quantum yield (in CS(C)=O) turned out to be 0.03.

As for `c1ccc2cc3cnccc3cc2c1`, where the note is “in CCO”, the photoluminescence quantum yield came out at 0.6.

Take `C=Cc1cc(OC)cc(OC)c1`: the photoluminescence quantum yield was found to be 0.12 (in C1CCCCC1) and 0.5 (in CC#N).

On to `CC1=C(c2ccc(N(c3ccccc3)c3ccccc3)cc2)C(C)=[N+]2C1=C(c1c(-c3ccccn3)nc3ccccn13)c1c(C)c(-c3ccc(N(c4ccccc4)c4ccccc4)cc3)c(C)n1[B-]2(F)F`, for which the photoluminescence quantum yield (in ClCCl) was 0.0078.

Regarding `COc1ccccc1-c1c(-c2ccccc2O)nc(-c2ccc(C(F)(F)F)cc2)n1-c1ccc(C)cc1`, the photoluminescence quantum yield was found to be 0.01 (in C1CCOC1); 0.01 (in CC(C)O); 0.01 (in CO); 0.01 (in CS(C)=O); 0.01 (in ClC(Cl)Cl); 0.01 (in ClCCl).

`CCCCCn1c2cc(/C=C/c3ccc(N(c4ccccc4)c4ccccc4)cc3)ccc2c2ccc(/C=C/c3ccc(N(c4ccccc4)c4ccccc4)cc3)cc21` registered a photoluminescence quantum yield (in Cc1ccccc1) of 0.81.

With `Cc1cc(-c2nnc(-c3ccccc3)o2)ccc1-n1c2ccccc2c2ccccc21`, for the setting “in Cc1ccccc1”, the photoluminescence quantum yield is 0.56.

`Oc1ccccc1-c1nc2c3ccccc3c3ccccc3c2o1`: the photoluminescence quantum yield (in Cc1ccccc1) is 0.003.

In the case of `Cc1cc(C)c(C2=C(c3c(C)sc(-c4ccc(-c5nc(-c6ccccc6)c(-c6ccccc6)[nH]5)cc4)c3C)C(F)(F)C(F)(F)C2(F)F)s1`, the photoluminescence quantum yield (in C1CCOC1) was 0.091.

With `CN1/C(=C/C=C(/C=C/c2sc3ccccc3[n+]2C)c2ccccc2)Sc2ccccc21`, the photoluminescence quantum yield was 0.06 (in CCO), 0.07 (in CO) and 0.24 (in CS(C)=O).

Take `N#Cc1ccc(/C=C2\OC(=O)c3cc(N)ccc32)cc1`: the photoluminescence quantum yield (in CC#N) came out at 0.062; the photoluminescence quantum yield (in CC(C)=O) was 0.05; the photoluminescence quantum yield (in CC(C)CO) was found to be 0.17; the photoluminescence quantum yield (in CC(C)O) was 0.16; the photoluminescence quantum yield (in CCCO) came to 0.14; the photoluminescence quantum yield (in CCO) stood at 0.13. Further, the photoluminescence quantum yield (in CCOC(C)=O) was 0.047, the photoluminescence quantum yield (in CCOCC) was determined as 0.031 and the photoluminescence quantum yield (in CO) was found to be 0.11.

For `CN(C)c1ccc(/C=C/c2nc(/C=C/c3ccc(N(C)C)cc3)c3ccccc3n2)cc1`, under “in ClCCl”, the photoluminescence quantum yield came to 0.02.

`CCCCCCc1ccc(-n2c3c(c4c2c2c(n4-c4ccc(CCCCCC)cc4)-c4cccc(OC)c4NB2c2ccccc2)B(c2ccccc2)Nc2c(OC)cccc2-3)cc1` registered a photoluminescence quantum yield (in Cc1ccccc1) of 0.62.

In turn, `N#C/C(=C(/C#N)c1ccc(-c2ccncc2)cc1)c1ccc(-c2ccncc2)cc1` showed a photoluminescence quantum yield (in ClCCl) of 0.002.

For the compound `[O-]c1ccccc1-c1[nH+]c2c3cccnc3c3ncccc3c2n1-c1ccccc1`, the photoluminescence quantum yield (in Cc1ccccc1) was 0.125.

As for `C(#Cc1c(C#Cc2cccs2)c(C#Cc2cccs2)c(C#Cc2cccs2)c(C#Cc2cccs2)c1C#Cc1cccs1)c1cccs1`, for the setting “in ClCCl”, the photoluminescence quantum yield turned out to be 0.27.

For the compound `O=C(c1ccccc1)c1cc2ccc1CCc1ccc(cc1-c1ccc(N(c3ccccc3)c3ccccc3)cc1)CC2`, under “in c1cc(-n2c3ccccc3c3ccccc32)cc(-n2c3ccccc3c3ccccc32)c1”, the photoluminescence quantum yield came out at 0.12.

Compound `Cc1ccc(-c2ccc(-c3ccc(C)cc3)c(/C(=C(/c3ccccc3)c3cc(-c4ccc(C)cc4)ccc3-c3ccc(C)cc3)c3ccccc3)c2)cc1` displayed a photoluminescence quantum yield (in C1CCOC1) of 0.32.

`COc1ccc2c(c1)CCC1=C(C#Cc3ccccc3)O[B-](F)(F)[O+]=C12` yielded a photoluminescence quantum yield (in ClCCl) of 0.8.

For `CC1=CC(C)=[N+]2C1=C(c1ccc(-c3ccc(OS(=O)(=O)c4ccc([N+](=O)[O-])cc4[N+](=O)[O-])cc3)s1)c1c(C)cc(C)n1[B-]2(F)F`, the photoluminescence quantum yield (in Cc1ccccc1) was found to be 0.066.

`CC1CC=C(c2ccc(-c3ccc(C=O)s3)s2)CC1` (stereo not drawn) registered a photoluminescence quantum yield (in CCO) of 0.43.

Take `CN(C)c1ccc(C#Cc2ccc(C#N)cc2)cc1`: the photoluminescence quantum yield (in C1CCCCC1) worked out at 0.455; the photoluminescence quantum yield (in C1CCOC1) was determined as 0.4; the photoluminescence quantum yield (in C1COCCO1) amounted to 0.066; the photoluminescence quantum yield (in CC1CCCO1) is 0.099; the photoluminescence quantum yield (in CC#N) came out at 0.024; the photoluminescence quantum yield (in CC(C)=O) was found to be 0.49. Moreover, the photoluminescence quantum yield was determined as 0.032 (in CC(C)CC(C)(C)C); 0.006 (in CC(C)O); 0.3 (in CCCCCCCCCCCCCCCC); 0.33 (in CCCCCCCCCCCCCCCCCl); 0.33 (in CCOC(C)=O); 0.29 (in CCOCC). Moreover, the photoluminescence quantum yield runs as follows: (in CN(C)C=O) 0.17; (in CS(C)=O) 0.029; (in Cc1ccccc1) 0.38.

With `COc1ccc(C2=Cc3c4ccccc4cc[n+]3[B-](F)(F)O2)cc1`, the photoluminescence quantum yield (in ClC(Cl)Cl) was found to be 0.313.

As to `C[Si](C)(C)c1ccc(-c2ccc(-c3ccc(-c4ccc(-c5ccc([Si](C)(C)C)cc5)s4)c4nsnc34)s2)cc1`, under “in C1CCOC1”, the photoluminescence quantum yield was found to be 0.77.

Regarding `Cc1ccc2nc3c(=O)[nH]c(=O)[nH]c3nc2c1`, the photoluminescence quantum yield amounted to 0.017 (in CC#N) and 0.024 (in ClCCCl).

`c1ccc(N(c2ccccc2)c2ccc(-c3nc(-c4ccc(N(c5ccccc5)c5ccccc5)cc4)c4ccccc4n3)cc2)cc1` yielded a photoluminescence quantum yield (in ClCCl) of 0.3.

With `c1ccc(-c2nc3sc4ccccc4c3s2)cc1`, the photoluminescence quantum yield (in CS(C)=O) was found to be 0.89.

Values taken from the Deep4Chem optical property database.
